Results from EP1154787B1 (priority 1999, dated 2000).
Where “and” joins values, the source holds several entries; their conditions need not be identical. Equal entries are not always repeated. Entries after “also recorded” stand apart in the source; their conditions may differ. Structures can show the parent of a compound that is named as a salt. Where two headings read alike, the source gives them in different places.

What was measured:
VSV [1] = type: cell-based
kunjin virus [2] = type: cell-based
a viral challenge = type: cell-based; conditions: for EC50: read-out: µM of test compounds # (concentration of test compound alone to protect Vero cells against a viral challenge by approximately 50%)
[3] = cited from earlier work
dengue virus = type: cell-based
yellow fever virus = type: cell-based
kunjin virus [4] = type: cell-based; remark: listed apart in the source
VSV [5] = type: cell-based; remark: listed apart in the source

Structure (SMILES)	CI (VSV [1])	Fold enhancement of antiviral activity (a viral challenge) [fold]	EC50 (a viral challenge) [µM]	CI (yellow fever virus)	further results
Nc1nccc2c1ncn2[C@@H]1C=C(CO)[C@@H](O)[C@H]1O [3-DAN, 3-deazaneplanocin A]	0.88 and 0.85 and 0.79 and 0.80 and 0.92 and 0.90 and 0.84	–	–	–	–
O=c1cnn([C@@H]2O[C@H](CO)[C@@H](O)[C@H]2O)c(=O)[nH]1 [6-AU, 6-azauridine]	0.49 and 0.59	–	–	–	–
Nc1ccn([C@@H]2C=C(CO)[C@@H](O)[C@H]2O)c(=O)n1 [CPE-C, cyclopentenyl cytosine]	0.98 and 0.81 and 0.80 and 0.97 and 0.75 and 0.79 and 0.76 and 0.74	10	~0.1	–	enhancement of the antiviral activity of interferon (kunjin virus [2]): 10 fold and 5 fold; deaths with refractory hypotension ([3]; hypotensive patients at 4.7 mg/m^2 per hour of CPE-C): Two of the four hypotensive patients died; hypotension ([3]; patients receiving ≤2.5 mg/m^2 per h CPE-C): Hypotension was not seen; also recorded: no hypotension was observed; hypotension ([3]; patients who received 4.7 mg/m^2 per hour of CPE-C, 24 to 48 hours after completion of infusion): Four of the eleven patients
C#Cc1c(C(N)=O)ncn1[C@@H]1O[C@H](CO)[C@@H](O)[C@H]1O [EICAR, 5-ethynyl-1-β-D-ribofuranosylimidazole-4-carboxamide]	–	2	~1	–	–
Cc1nc(N)nc(N)c1-c1ccc(Cl)c(Cl)c1 [NSC 7364]	–	–	–	–	CI (dengue virus): 0.834 and 0.813 and 0.979; IC50 (dengue virus; read-out: NSC 7364 IC50): 372 nM
NC(=O)c1[nH]nc([C@@H]2O[C@H](CO)[C@@H](O)[C@H]2O)c1O [NSC 143095]	–	–	–	0.71 and 0.57 and 0.69	–
CCc1c(CNc2ccc(C(=O)NC(CC(=O)O)C(=O)O)cc2)ccc2nc(N)nc(N)c12 (stereo not drawn) [NSC 184692]	–	–	–	–	enhanced the anti-viral effect of human IFNβ (dengue virus): 10 fold; EC50 (dengue virus; read-out: ED50 against dengue virus): 0.12 nM
CCc1nc(N)nc(N)c1-c1ccc(Cc2ccccc2)c([N+](=O)[O-])c1 [NSC 382046]	–	–	–	–	CI (dengue virus): 0.758 and 0.672; CI (kunjin virus [4]): 0.99 and 0.96 and 0.83 and 0.75 and 0.70
Nc1ncnc2c1ncn2[C@@H]1C=C(CO)[C@@H](O)[C@H]1O [Neplanocin A, neplanocin A]	0.80 and 0.56 and 0.40 and 0.67 and 0.71	–	–	0.63 and 0.71 and 0.59	–
NC(=O)c1c[se]c([C@@H]2O[C@H](CO)[C@@H](O)[C@H]2O)n1 [Selenofurin, 2-β-D-ribofuranosylselenazole-4-carboxamide]	–	–	–	0.94 and 0.65 and 0.53 and 0.62 and 0.49	–
NC(=O)c1csc([C@@H]2O[C@H](CO)[C@@H](O)[C@H]2O)n1 [Tiazofurin, 2-β-D-ribofuranosylthiazole-4-carboxamide]	–	–	–	0.85 and 0.68 and 0.51 and 0.87	–
NC12CC3CC(CC(C3)C1)C2 [amantadine, amantadine hydrochloride]	–	50	~1	–	CI (VSV [1]; hydrochloride): 0.79 and 0.76 and 0.62 and 0.66 and 0.87; CI (kunjin virus [4]): 0.76
COc1c(C)c2c(c(O)c1C/C=C(\C)CCC(=O)O)C(=O)OC2 [mycophenolic acid]	–	3	~0.1	–	IC50 (VSV [1]; read-out: MPA IC50): 200 nM; CI (VSV [5]): 0.48 and 0.46 and 0.56
